The values below come from US11118204B2, “Switchable ionic liquids for biomass pretreatment and enzymatic hydrolysis” (National Technology & Engineering Solutions of Sandia, LLC, priority 2014, dated 2021).

For data set [1] the following is noted: ionic liquid solution.
A further data set relates to Ctec2. Kind of data set: Ctec2 stability in ionic liquids (residual activity, T50^30). Type of data set: biochemical. Conditions: for T50^30 (temperature at which enzyme activity is reduced by 50% following 30-minute pre-incubation): Ctec2 pre-incubated 38-80° C. in IL at 5-20%, substrates CMC, PNP-cellobiose, PNP-glucopyranoside, FIG. 1. The procedure:
Enzyme stability was monitored by residual activity measurements. Ctec2 was diluted 200-fold into nine ionic liquid or buffer solutions at concentrations from 1-20 wt %. Each enzyme solution was then divided into 18 wells in a thin-walled PCR plate and incubated in thermal […] (Applied Biosystems, Veriti) at temperatures from 38-80° C. for 30 minutes. […] CMC reaction end-points were analyzed by DNS assay to detect reducing sugars. The end-points of the paranitrophenol reactions were measured by absorbance at 405 nm. […] Error was estimated by replication of both the incubation and activity measurement steps. Some solution conditions produced clearly bi-modal inactivation curves; in these cases the larger of the two transitions was reported. […] To capture the stability differences for several different enzyme classes in the multicomponent commercial enzyme mixture, the T50^30 was measured on three different representative substrates: carboxymethylcellulose (CMC), 4-Nitrophenyl β-D-glucopyranoside (PNP-glucopyranoside) and 4-Nitrophenyl β-D-cellobiose (PNP-cellobiose). […] In FIG. 1, data for acetate-based ionic liquids are shown in the left-hand panels: [Em][Ac] (open circle, solid line); [Ch][Ac] (closed circle, solid line); [Na][Ac], pH 5.2 at 25° C. (closed circle, dashed line). Data for glutamic acid-based ionic liquids are shown in the center panels: […] [Ch]2[Glu] (closed triangle, solid line); […] (open circle, dashed line). Data for succinic acid-based ionic liquids are shown in the right-hand panels: […] [Na][Sc], pH 5.2 at 25° C. (closed square, dashed line); […]

For data set [2] the following is noted: corn stover, 25 wt % ionic liquid.
A short description of data set [3]: Switchgrass pretreatment in ionic liquid and enzymatic hydrolysis (sugar conversion). The conditions noted are these: for pretreatment efficiency on dilution of the ionic liquid: 120° C., 3 hrs, FIG. 2B; for biomass pretreatment effectiveness (sugar conversion): pretreatment in neat ionic liquid at 90 or 120° C., hydrolysis in 50 mM sodium succinate pH 5.2, FIG. 2A. The procedure: Putnam Switchgrass (20 mesh—2 mm particle size) was used as the biomass for all experiments. Samples used to determine the pretreatment and dilution efficiency were washed free of ionic liquid with de-ionized water, and re-suspended in 50 mM sodium succinate buffer at pH 5.2. All enzyme hydrolysis reactions were performed with shaking at 50° C. and 20 mg/g 9:1 Ctec2:Htec, unless otherwise specified. Small-scale, one-pot reactions were performed in 2 ml screw-cap vials in heating blocks without mixing with 100 mg biomass at the specified ionic liquid concentration and biomass loading. Reactions were then acidified with 1 eq. of the free acid in the same vial and transferred to shaker incubators for the enzymatic hydrolysis. Larger scale one-pot reactions were performed in glass pressure tubes (Ace Glass, USA) with 2 g or 4 g biomass (Table 1). Liberated glucose and xylose were quantified with an Agilent HPLC using a Bio-Rad Aminex […] column with a 4 mM sulfuric acid mobile phase.
Data for pretreatment at 90° C. and 120° C. is shown using white bars and black bars, respectively. […] (white bars), and dilution of the ionic liquid to 25% with water.
For the data in FIG. 2C, samples were pretreated at 90° C. or 120° C., with various % IL in the liquid fraction and different wt % biomass loadings. All samples were then hydrolyzed at 25% IL concentration with 9:1 Ctec2:Htec at 20 mg/g biomass. White bars, 90° C., 16 hrs; gray bars, 120° C., 3 hrs; black bars, 120° C., 16 hrs.
In FIG. 3A and FIG. 3B, the circles represent data obtained using 10 wt % ionic liquid and the squares represent data obtained using 25 wt % ionic liquid.

Setting [4] is: [Em][Ac] (20%) acidified with acetic acid to pH ~5.

Several values for one entry are separate records, joined by “and”; a condition that tells them apart may be missing. Equal values may be shown once.

As for `C[N+](C)(C)CCO.C[N+](C)(C)CCO.N[C@@H](CCC(=O)[O-])C(=O)[O-]` [[Ch]2[Glu], (choline)2 glutamate], in data set [1], the “solution pH” value was 10-11. In the data set on Ctec2, the “T50^30 (temperature at which enzyme activity is reduced by 50% following 30-minute pre-incubation)” value is “lowest”. In addition, in the data set on Ctec2 (at the lowest ionic liquid concentrations), the CTec2 activity result was “very low”. The same molecule gave a glucose yield in data set [2] of roughly 95%. In addition, in data set [3] (25% solution, pretreatment 120° C., 16 hours, one-pot), the “performance (glucose yield) relative to the neat ionic liquid” value is on record as roughly 90%. Further, in data set [3], the “pretreatment efficiency on dilution of the ionic liquid” value is “consistently high pretreatment efficiency” and the “biomass pretreatment effectiveness (sugar conversion)” value (“biomass pretreatment effectiveness” below) was “marked improvement”.
In the case of `C[N+](C)(C)CCO.C[N+](C)(C)CCO.O=C([O-])CCC(=O)[O-]` [[Ch]2[Sc], (choline)2 succinate], the “solution pH” value in data set [1] is reported as roughly 7. In data set [3], the “pretreatment efficiency on dilution of the ionic liquid” value is on record as “monotonic decrease in efficiency” and the “biomass pretreatment effectiveness” value is reported as “marked improvement”. Moreover, the “sugar release relative to [Ch][Glu]” value in data set [3] (pretreatment at 120° C.) is listed as “twice as much sugar”.
For `C[N+](C)(C)CCO.C[N+](C)(C)CCO.O=C([O-])C(=O)[O-]` [[Ch]2[oxalic acid], reference compound], in data set [3] (ionic liquid used neat), the Glucose conversion is listed as 48% and the “glucose conversion above hot water pretreatment” value is given as roughly 15%.
Regarding `CC(=O)[O-].CCn1cc[n+](C)c1` [[Em][Ac], 1-ethyl-3-methylimidazolium acetate], in the data set with Ctec2 (setting [4]), the “stability of the commercial enzyme mixture on CMC” value was “slightly” and the “stability of the commercial enzyme mixture on the para-nitrophenol substrates” value is “decreased significantly”.
In the case of “Choline lysinate [[Ch][Lys], reference compound]”, the “solution pH” value in data set [1] was ~14 and ~12. Moreover, the “T50^30 (temperature at which enzyme activity is reduced by 50% following 30-minute pre-incubation)” value in the data set with Ctec2 is on record as “similarly low”.
Turning to Choline succinate [[Ch][Sc]], in data set [3], the “biomass pretreatment effectiveness” value is recorded as “poorly”.
choline glutamate [[Ch][Glu]]: the Glucose conversion in data set [3] (10 wt % IL, 10% switchgrass, pretreatment at 120° C. with [Ch]2[Glu], one-pot hydrolysis with CTec2) came to 91%; in data set [3] (25 wt % IL, 10% switchgrass, pretreatment at 120° C. with [Ch]2[Glu], one-pot hydrolysis with CTec2) it was 82%. The “biomass pretreatment effectiveness” value in data set [3] is given as “poorly”.
